Key:
[1] = Clearance prediction from incubation with human liver microsomes; format: in vitro ADME
Method: Drug disappearance t1/2 value measurements in rat and human microsomes were used to determine the in vitro apparent intrinsic clearance value (CLintapp) of buagafuran acquired using Then CLintapp was converted to in vivo intrinsic clearance (CLint).
Rat or human liver microsomal incubation (0.5 mg/mL) was carried out at 37°C in a mixture of 0.5 mL in 0.05 M Tris–HCl buffer (pH 7.4). Buagafuran (2 μM) was added to the incubation system. The addition of NADPH (1 mM) initiated the reaction, then the reaction was incubated for 0, 10, 20, 30, 45, and 60 min. The equal volume of acetonitrile containing the IS (10 ng/mL) was added to stop the reaction. The mixtures were centrifuged at 16000 g for 5 min and the supernatants were determined using LC-MS/MS method.
The natural log (In) of buagafuran concentration versus time was plotted and the slope of the best fit line of was determined by the data (k). This was converted into in vitro t1/2 where t1/2 = In 2/k. CLintapp was calculated by the following equation: […]
Where M is the microsomal protein concentration in the incubation. CLint by liver was calculated from equation 2:
(2) CLint=CLint(app)×mgmicrosome/gliver×liverweight(g)/bodyweight(kg)
Where a value of 45 mg of protein per gram of liver tissue was used for both rat and human, and a liver weight of 40 and 21 g per kg were applied to rat and human, respectively ([Hosea et al., 2009]). […]

[2] = PBPK simulation in human (GastroPlus); settings: optimized by comparing fitting with observed PK data
Excerpt: GastroPlus^TM software (version 8.5) was used to perform all simulations, (Simulations Plus, Inc., Lancaster, CA, United States). The absorption of oral formulations from the GI tract was modeled by the advanced compartmental absorption and transit (ACAT^TM) model implemented in GastroPlus ([Agoram et al., 2001]; [Kuentz et al., 2006]; [Huang et al., 2009]; [Zhang et al., 2011]). Input parameters in the ACAT model include three groups: formulation properties, physicochemical properties and pharmacokinetic parameters. […] The immediate release (IR) suspension for rat and IR capsule for human were selected for simulation of buagafuran in GastroPlus^TM. The ACAT model consists of nine compartments that mimic the GI tract. Each GI tract has an associated ASF. ASF is the multiplier used to scale the permeability to account for different surface-to-volume ratios, pH effects, transporter differences, and other factors that affect absorption between different compartments ([Zhang et al., 2011]). Four coefficients C1–C4 are used to calculate ASF. And there are eight basic ASF models in version 8.5. […]
The pharmacokinetic parameters of unbound fraction in plasma (FUp) were experimentally measured values. […]

[3] = Biopharmaceutical classification system (BCS); format: physicochemical
[4] = set-up: method as in Chen X. et al., 2013; settings: clinical data; ref Chen X. et al., 2013; cited from earlier work

With `CCCCC1=CCC[C@@]2(C)CC[C@@H]3C[C@]12OC3(C)C` [buagafuran] the CLhep predicted ([1]; from human liver microsomes, well-stirred model) was 7.7 mL/min/kg, the microsomal CLint at 2 μM ([1]; pH 7.4, human liver microsomes 0.5 mg/mL, 2 μM, read-out: in vitro CLintapp) was 22 µL/min/mg and the “input (refined) CLhep” value [2] was 11.7 mL/min/kg. For the same molecule, the “biopharmaceutical classification system (BCS) class” value [3] was “Class II” and the “urine excretion of the dose administered” value [4] was “less than 1%”.

From paper PMC5641330, “Prediction of a Therapeutic Dose for Buagafuran, a Potent Anxiolytic Agent by Physiologically Based Pharmacokinetic/Pharmacodynamic Modeling Starting from Pharmacokinetics in Rats and Human” (Frontiers in Pharmacology, 2017)
